Broadly, the IC50 is the midpoint of a concentration-inhibition curve.

Holding throughout (type): functional, cell-based
One experiment relates to MDA-MB-231. In words: Antiproliferative activity against human MDA-MB-231 cells assessed as reduction in cell viability incubated for 24 hrs by MTT assay. The conditions noted are these: MDA-MB-231, 24 h. Background: Formazan colour is commonly taken as a measure of viable cells.
Another experiment relates to SK-BR-3. The experiment in a line: Antiproliferative activity against human SK-BR-3 cells assessed as reduction in cell viability incubated for 24 hrs by MTT assay. The conditions noted are these: SK-BR-3, 24 h.
For a further experiment, the system named is MCF-10A. The experiment in a line: Antiproliferative activity against human MCF-10A cells assessed as reduction in cell viability incubated for 24 hrs by MTT assay.

Turning to `O=C(CCCCCCCCc1ccc2c(c1)OCO2)c1c(O)cccc1O`, the 50% inhibitory concentration (IC50) in the experiment with MDA-MB-231 turned out to be 15.1 µM; in the experiment on SK-BR-3, 9.3 µM; in the experiment on MCF-10A it was 82.6 µM.

Values taken from ChEMBL document CHEMBL6083210, “Exploring apoptotic induction of malabaricone A in triple-negative breast cancer cells: an acylphenol phyto-entity isolated from the fruit rind of Myristica malabarica Lam” (RSC Med Chem, 2024).
